Values quoted from earlier work as cited in article PMC8796384, “Plasma protein binding prediction focusing on residue-level features and circularity of cyclic peptides by deep learning” (Bioinformatics, 2021).
Where two headings read alike, the source gives them in different places.

What was measured:
[1] = test system: plasma proteins
Text: The external test (DrugBank) data contained some structurally similar pairs.

[2] = test system: plasma proteins; details: whole-peptide descriptor model trained on small molecules; ref Tajimi et al. (2018)
[3] = experimental %PPB, below 50% rounded to 50%, above 95% rounded to 95%, DrugBank dataset collected by Tajimi et al. (2018), ref Wishart et al., 2018

| Substance | %PPB50-95 [1, 3] | other results |
| --- | --- | --- |
| Anidulafungin | 84% |  |
| daptomycin |  | predicted %PPB value by Tajimi [2]: 49% |
| Caspofungin | 95% |  |
| Polymyxin B |  | %PPB50-95 [1]: 85.5% |
| Lanreotide | 81% |  |
| Pasireotide |  | %PPB50-95 [1]: 88% |
| Micafungin | 95% |  |
